Measurements reported in patent US20160251403A1, “PEPTIDE COMBINATIONS AND USES THEREOF IN TREATING DUST MITE ALLERGY” (ALK-ABELLO A/S, priority 2013, published 2016).
No end group written: not given here.

Key:
DRB1_0901 = DRB1_0901 (Homo sapiens, UniProt P01903+P01911, A100R/A103E/D57H/D86V/F55Y/F60I/F76Y/I96F/K127E/L162R/M171V/P40D/Q125H/Q99R/R33Q/R42F/S133A/S66N/T210M/V115G/W38K/Y107V/Y59G/Y89S); assay: Competitive MHC class II binding assay, DRB1_0901;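 further: displacement of a radiolabeled probe peptide from purified HLA class II protein, bound counts read after two to four days incubation, six concentrations spanning 100,000-fold, unlabeled probe as reference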
DRB1_0101 = DRB1_0101 (Homo sapiens, UniProt P01903+P01911, A100R/D57E/F55L/F60I/F76Y/I96L/L162R/M171V/P40L/Q125E/R42F/V115G/Y59C); assay: Competitive MHC class II binding assay, DRB1_0101;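 further: competition against a radiolabeled probe peptide (0.1–1 nM) for purified HLA class II protein over 2–4 days, bound counts read after antibody capture, six competitor levels across 100,000-fold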
DQA10501-DQB10201 = DQA10501-DQB10201 (Homo sapiens, UniProt P01909+P01920, A45G/A70V/D89A/E106A/E77G/E98D/H199R/L107V/N214S/P84L/P87L/T103K/T109R/T172A/T60S/V78E/V99I/Y58L/Y62S/Y69I/Y79F); assay: Competitive MHC class II binding assay, DQA10501-DQB10201
DRB1_0802 = DRB1_0802 (Homo sapiens, UniProt P01903+P01911, A100R/A103L/A169T/F76Y/H45Y/I96F/K41T/L162R/M171V/P40S/Q125H/Q178H/Q39Y/Q99D/R218S/R42G/S66Y/V115G/W38E); assay: Competitive MHC class II binding assay, DRB1_0802
DRB1_0401 = DRB1_0401 (Homo sapiens, UniProt P01903+P01911, A100K/A169T/F76Y/I96L/K127E/L162R/M171V/N62H/P40V/Q125Y/R42H/S133A/S149N/S66Y/V115G/V209L/W38E); assay: Competitive MHC class II binding assay, DRB1_0401
DQA10301-DQB10302 = DQA10301-DQB10302 (Homo sapiens, UniProt P01909+P01920, A209T/A45G/C70Q/D89A/DUP78-78/E183D/E77G/F237L/G63E/H199R/I129T/K197E/L178F/L74F/L98V/Q57E/Q76R/S185I/S97I/T217I/T49S/V73L/Y58L); assay: Competitive MHC class II binding assay, DQA10301-DQB10302
DQA10501-DQB10301 = DQA10501-DQB10301 (Homo sapiens, UniProt P01909+P01920); assay: Competitive MHC class II binding assay, DQA10501-DQB10301
DRB1_1302 = DRB1_1302 (Homo sapiens, UniProt P01903+P01911, A100E/A169T/K41T/L162R/M171V/P40S/Q125H/Q178H/Q39Y/Q99D/R42S/S66N/T262R/V115G/W38E/Y61H); assay: Competitive MHC class II binding assay, DRB1_1302;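 further: purified HLA class II protein incubated two to four days with a radiolabeled reference binder and test peptide at six concentrations over a 100,000-fold range, complex-bound radioactivity counted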
DPA10103-DPB10402 = molecular target: T1, DPA10103-DPB10402 (Homo sapiens, UniProt P04440+P20036, A65V/A84D/A85E/L207M); assay: Competitive MHC class II binding assay, DPA10103-DPB10402
T1 sequence (P20036 29-260): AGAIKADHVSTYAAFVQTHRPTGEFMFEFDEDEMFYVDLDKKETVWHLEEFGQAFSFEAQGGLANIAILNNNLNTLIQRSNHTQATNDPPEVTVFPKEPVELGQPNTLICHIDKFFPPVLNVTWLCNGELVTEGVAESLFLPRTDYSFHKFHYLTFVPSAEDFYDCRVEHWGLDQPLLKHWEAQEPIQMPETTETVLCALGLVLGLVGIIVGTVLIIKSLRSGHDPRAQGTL
T1 sequence (P04440 30-258 A65V/A84D/A85E): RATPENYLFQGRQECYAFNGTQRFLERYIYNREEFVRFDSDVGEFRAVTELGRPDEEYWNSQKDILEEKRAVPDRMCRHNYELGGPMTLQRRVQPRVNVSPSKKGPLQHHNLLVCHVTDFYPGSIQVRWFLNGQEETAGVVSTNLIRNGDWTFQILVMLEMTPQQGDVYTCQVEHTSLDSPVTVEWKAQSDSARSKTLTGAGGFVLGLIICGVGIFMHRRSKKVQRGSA

DRB1_0405 = DRB1_0405 (Homo sapiens, UniProt P01903+P01911, A100R/A169T/D86S/F76Y/I96L/K127E/L162R/M171V/N62H/P40V/Q125Y/R42H/S133A/S149N/S66Y/V115G/V209L/W38E); assay: Competitive MHC class II binding assay, DRB1_0405
DRB1_0701 = DRB1_0701 (Homo sapiens, UniProt P01903+P01911, A100R/A102G/A103Q/D57E/D86V/E43K/F76Y/K127E/L162R/M171V/P40G/Q125H/Q99D/R33Q/R42Y/R54Q/S133A/S66F/T210M/V115G/Y107V/Y59L/Y89S); assay: Competitive MHC class II binding assay, DRB1_0701;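 further: displacement of a radiolabeled reference peptide from purified HLA class II protein, with complex-bound radioactivity counted after 2–4 days of incubation and six concentrations spanning a 100,000-fold range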
DRB5_0101 = DRB5_0101 (Homo sapiens, UniProt P01903+Q30154); assay: Competitive MHC class II binding assay, DRB5_0101
DPA10103-DPB10301 = molecular target: T2, DPA10103-DPB10301 (Homo sapiens, UniProt P04440+P20036, A65V/A84D/A85E/E86D/F38Y/G113D/G114E/G40L/I94L/L37V/M105V/M116V/P115A/R125K/T199I); assay: Competitive MHC class II binding assay, DPA10103-DPB10301
T2 sequence (P20036 29-260): T1 sequence (P20036 29-260)
T2 sequence (P04440 30-258 L37V/F38Y/G40L/A65V/A84D/A85E/E86D/I94L/M105V/G113D/G114E/P115A/M116V/R125K/T199I/V234M): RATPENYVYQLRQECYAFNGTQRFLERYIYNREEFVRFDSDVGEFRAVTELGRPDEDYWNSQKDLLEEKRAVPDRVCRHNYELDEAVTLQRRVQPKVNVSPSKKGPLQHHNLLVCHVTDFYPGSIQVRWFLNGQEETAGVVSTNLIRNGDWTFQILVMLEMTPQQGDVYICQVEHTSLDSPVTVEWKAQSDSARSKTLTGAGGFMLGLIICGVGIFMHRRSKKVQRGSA

Row | Compound | IC50 (DRB1_0901) [µM] | IC50 (DRB1_0101) [µM] | IC50 (DQA10501-DQB10201) [µM] | IC50 (DRB1_0802) [µM] | IC50 (DRB1_0401) [µM] | IC50 (DQA10301-DQB10302) [µM] | IC50 (DQA10501-DQB10301) [µM] | IC50 (DRB1_1302) [µM] | IC50 (DPA10103-DPB10402) [µM] | IC50 (DRB1_0405) [µM] | IC50 (DRB1_0701) [µM] | IC50 (DRB5_0101) [µM] | IC50 (DPA10103-DPB10301) [µM] | binding to HLA Class II allele DQA10501-DQB10201 (DQA10501-DQB10201; as shown in Table 16a) | binding to HLA Class II allele DRB1_1302 (DRB1_1302; as shown in Table 16a)
1 | DNGYGYFAANIDLMMIEE [pep-010] | < 1 | < 1 | < 1 | < 1 | < 1 | < 1 | < 1 | < 1 | < 1 | < 1 | < 1 |  |  | binds to at least the same alleles as peptide 041 | binds to at least the same alleles as peptide 041
2 | GSGSSWAFSGVAATESAYLA [pep-044] | < 1 | < 1 | < 1 |  | < 1 | < 1 | < 1 | < 1 | < 1 | < 1 | < 1 |  | < 1 |  | 
3 | LVGDNGVLASAIATHAKIRD [pep-110] | < 1 | < 1 |  | < 1 | < 1 |  | < 1 | < 1 |  |  |  | < 1 |  |  | 
4 | HAVNIVGYSNAQGVDYWIVR [pep-058] | < 1 |  | < 1 | < 1 | < 1 |  | < 1 | < 1 |  | < 1 | < 1 |  | < 1 |  | 

Further lines, with some results ahead:

Row | IC50 (DRB1_0901) [µM] | IC50 (DRB1_0101) [µM] | IC50 (DQA10501-DQB10201) [µM] | IC50 (DRB1_0802) [µM] | IC50 (DRB1_0401) [µM] | IC50 (DQA10301-DQB10302) [µM] | IC50 (DQA10501-DQB10301) [µM] | IC50 (DRB1_1302) [µM] | IC50 (DPA10103-DPB10402) [µM] | IC50 (DRB1_0405) [µM] | IC50 (DRB1_0701) [µM] | IC50 (DRB5_0101) [µM] | IC50 (DPA10103-DPB10301) [µM] | Compound | binding to HLA Class II allele DQA10501-DQB10201 (DQA10501-DQB10201; as shown in Table 16a) | binding to HLA Class II allele DRB1_1302 (DRB1_1302; as shown in Table 16a)
5 | < 1 | < 1 |  | < 1 |  |  |  | < 1 |  |  | < 1 | < 1 | < 1 | LVKGQQYDIKYTWNVPKIAPK [pep-131] |  | 
6 | < 1 | < 1 | < 1 | < 1 |  | < 1 | < 1 | < 1 | < 1 | < 1 | < 1 | < 1 | < 1 | CC[C@H](C)[C@H](NC(=O)CNC(=O)[C@@H](NC(=O)[C@@H](NC(=O)[C@@H](NC(=O)[C@H](C)NC(=O)[C@@H](NC(=O)[C@H](C)NC(=O)[C@H](CO)NC(=O)[C@H](Cc1c[nH]cn1)NC(=O)[C@@H](NC(=O)[C@H](CCC(N)=O)NC(=O)[C@H](C)NC(=O)[C@H](CC(C)C)NC(=O)[C@H](C)NC(=O)[C@H](CCC(=O)O)NC(=O)[C@@H](N)CCCNC(=N)N)[C@@H](C)O)[C@@H](C)CC)C(C)C)[C@@H](C)CC)[C@@H](C)CC)C(=O)N[C@@H](CCCCN)C(=O)N[C@@H](CC(=O)O)C(=O)N[C@@H](CC(C)C)C(=O)N[C@@H](CC(=O)O)C(=O)N[C@@H](C)C(=O)O [pep-130] |  | 
